The source made the active and inactive calls. The rule behind the calls is not given here.
Test system: CCRIS mutagenicity, Ames/micronucleus/aberration tests
Experiment: CCRIS mutagenicity studies
[1] = Test System: AMES SALMONELLA TYPHIMURIUM, Strain/Indicator: TA100, Metabolic Activation: NONE, Method: PREINCUBATION
[2] = Test System: AMES SALMONELLA TYPHIMURIUM, Strain/Indicator: TA1538, Metabolic Activation: NONE, Method: STANDARD PLATE
[3] = Test System: AMES SALMONELLA TYPHIMURIUM, Strain/Indicator: TA1538, Metabolic Activation: RAT, LIVER, S-9, AROCLOR 1254, Method: STANDARD PLATE
[4] = Test System: AMES SALMONELLA TYPHIMURIUM, Strain/Indicator: TA98, Metabolic Activation: NONE, Method: PREINCUBATION

SMILES: CC(=O)CC(=O)Nc1ccc(O)cc1
- mutagenic call (Test System: AMES SALMONELLA TYPHIMURIUM, Strain/Indicator: TA100, Metabolic Activation: HAMSTER, LIVER, S-9, KANECHLOR 400, Method: PREINCUBATION): inactive; negative
- mutagenic call [1]: inactive; negative

SMILES: CCN(CC)c1ccc(-c2ccc(-c3ccc(-c4ccc(N(CC)CC)cc4)cc3)cc2)cc1
- mutagenic call [2]: inactive; negative
- mutagenic call [3]: inactive; negative

SMILES: O=C/C=C/c1ccccc1
- mutagenic call (End Point: IN VITRO CHROMOSOMAL ABERRATIONS, Test System: CHINESE HAMSTER OVARY CELLS, Metabolic Activation: NONE): inactive; negative
- mutagenic call (End Point: IN VITRO CHROMOSOMAL ABERRATIONS, Test System: CHINESE HAMSTER OVARY CELLS, Metabolic Activation: RAT, LIVER, S-9, AROCLOR 1254): inactive; negative
- mutagenic call (End Point: IN VIVO MICRONUCLEUS, Test System: BONE MARROW POLYCHROMATIC ERYTHROCYTES, Species: MOUSE, Strain/Sex: DDY/MALE, Route: IP): inactive; negative
- mutagenic call (Test System: AMES SALMONELLA TYPHIMURIUM, Strain/Indicator: TA97, Metabolic Activation: NONE, Method: PREINCUBATION (120 MIN)): inactive; negative
- mutagenic call (Test System: AMES SALMONELLA TYPHIMURIUM, Strain/Indicator: TA97, Metabolic Activation: S-9, Method: PREINCUBATION (120 MIN)): inactive; negative
- mutagenic call (Test System: AMES SALMONELLA TYPHIMURIUM, Strain/Indicator: TA98, Metabolic Activation: HAMSTER, LIVER, S-9, AROCLOR 1254 (2.5-20%), Method: PREINCUBATION): inactive; negative
- mutagenic call (Test System: AMES SALMONELLA TYPHIMURIUM, Strain/Indicator: TA98, Metabolic Activation: HAMSTER, LIVER, S-9, AROCLOR 1254, Method: STANDARD PLATE): inactive; negative
- mutagenic call (Test System: AMES SALMONELLA TYPHIMURIUM, Strain/Indicator: TA98, Metabolic Activation: NONE, Method: PREINCUBATION (120 MIN)): inactive; negative
- mutagenic call (Test System: AMES SALMONELLA TYPHIMURIUM, Strain/Indicator: TA98, Metabolic Activation: NONE, Method: STANDARD PLATE): inactive; negative
- mutagenic call (Test System: AMES SALMONELLA TYPHIMURIUM, Strain/Indicator: TA98, Metabolic Activation: RAT, LIVER, S-9, AROCLOR 1254, Method: STANDARD PLATE): inactive; negative
- mutagenic call (Test System: AMES SALMONELLA TYPHIMURIUM, Strain/Indicator: TA98, Metabolic Activation: S-9, Method: PREINCUBATION (120 MIN)): inactive; negative
- mutagenic call (Test System: AMES SALMONELLA TYPHIMURIUM, Strain/Indicator: TA100, Metabolic Activation: HAMSTER, LIVER, S-9, AROCLOR 1254 (2.5-20%), Method: PREINCUBATION): inactive; negative
- mutagenic call (Test System: AMES SALMONELLA TYPHIMURIUM, Strain/Indicator: TA100, Metabolic Activation: HAMSTER, LIVER, S-9, AROCLOR 1254, Method: STANDARD PLATE): inactive; negative
- mutagenic call [1]: inactive; negative
- mutagenic call (Test System: AMES SALMONELLA TYPHIMURIUM, Strain/Indicator: TA100, Metabolic Activation: NONE, Method: PREINCUBATION (120 MIN)): inactive; negative
- mutagenic call (Test System: AMES SALMONELLA TYPHIMURIUM, Strain/Indicator: TA100, Metabolic Activation: NONE, Method: STANDARD PLATE): inactive; negative
- mutagenic call (Test System: AMES SALMONELLA TYPHIMURIUM, Strain/Indicator: TA100, Metabolic Activation: RAT LIVER S-9, AROCLOR 1254, Method: PREINCUBATION): inactive; negative
- mutagenic call (Test System: AMES SALMONELLA TYPHIMURIUM, Strain/Indicator: TA100, Metabolic Activation: RAT, LIVER, S-9, AROCLOR 1254, Method: PREINCUBATION): inactive; negative
- mutagenic call (Test System: AMES SALMONELLA TYPHIMURIUM, Strain/Indicator: TA100, Metabolic Activation: RAT, LIVER, S-9, AROCLOR 1254, Method: STANDARD PLATE): inactive; negative
- mutagenic call (Test System: AMES SALMONELLA TYPHIMURIUM, Strain/Indicator: TA100, Metabolic Activation: S-9, Method: PREINCUBATION (120 MIN)): inactive; negative
- mutagenic call (Test System: AMES SALMONELLA TYPHIMURIUM, Strain/Indicator: TA102, Metabolic Activation: HAMSTER, LIVER, S-9, AROCLOR 1254, Method: PREINCUBATION): inactive; negative
- mutagenic call (Test System: AMES SALMONELLA TYPHIMURIUM, Strain/Indicator: TA102, Metabolic Activation: MOUSE LIVER S-9, AROCLOR 1254, Method: PREINCUBATION): inactive; negative
- mutagenic call (Test System: AMES SALMONELLA TYPHIMURIUM, Strain/Indicator: TA102, Metabolic Activation: NONE, Method: PREINCUBATION): inactive; negative
- mutagenic call (Test System: AMES SALMONELLA TYPHIMURIUM, Strain/Indicator: TA102, Metabolic Activation: RAT LIVER S-9, AROCLOR 1254, Method: PREINCUBATION): inactive; negative
- mutagenic call (Test System: AMES SALMONELLA TYPHIMURIUM, Strain/Indicator: TA102, Metabolic Activation: RAT, LIVER, S-9, AROCLOR 1254, Method: PREINCUBATION): inactive; negative
- mutagenic call (Test System: AMES SALMONELLA TYPHIMURIUM, Strain/Indicator: TA104, Metabolic Activation: MOUSE LIVER S-9, AROCLOR 1254, Method: PREINCUBATION): inactive; negative
- mutagenic call (Test System: AMES SALMONELLA TYPHIMURIUM, Strain/Indicator: TA104, Metabolic Activation: NONE, Method: PREINCUBATION): inactive; negative
- mutagenic call (Test System: AMES SALMONELLA TYPHIMURIUM, Strain/Indicator: TA104, Metabolic Activation: RAT LIVER S-9, AROCLOR 1254, Method: PREINCUBATION): inactive; negative
- mutagenic call (Test System: AMES SALMONELLA TYPHIMURIUM, Strain/Indicator: TA1535, Metabolic Activation: HAMSTER, LIVER, S-9, AROCLOR 1254, Method: STANDARD PLATE): inactive; negative
- mutagenic call (Test System: AMES SALMONELLA TYPHIMURIUM, Strain/Indicator: TA1535, Metabolic Activation: NONE, Method: STANDARD PLATE): inactive; negative
- mutagenic call (Test System: AMES SALMONELLA TYPHIMURIUM, Strain/Indicator: TA1535, Metabolic Activation: RAT, LIVER, S-9, AROCLOR 1254, Method: STANDARD PLATE): inactive; negative
- mutagenic call (Test System: AMES SALMONELLA TYPHIMURIUM, Strain/Indicator: TA1537, Metabolic Activation: HAMSTER, LIVER, S-9, AROCLOR 1254, Method: STANDARD PLATE): inactive; negative
- mutagenic call (Test System: AMES SALMONELLA TYPHIMURIUM, Strain/Indicator: TA1537, Metabolic Activation: NONE, Method: PREINCUBATION): inactive; negative
- mutagenic call (Test System: AMES SALMONELLA TYPHIMURIUM, Strain/Indicator: TA1537, Metabolic Activation: NONE, Method: STANDARD PLATE): inactive; negative
- mutagenic call (Test System: AMES SALMONELLA TYPHIMURIUM, Strain/Indicator: TA1537, Metabolic Activation: RAT, LIVER, S-9, AROCLOR 1254, Method: STANDARD PLATE): inactive; negative
- mutagenic call (Test System: AMES SALMONELLA TYPHIMURIUM, Strain/Indicator: TA1538, Metabolic Activation: HAMSTER, LIVER, S-9, AROCLOR 1254, Method: STANDARD PLATE): inactive; negative
- mutagenic call [2]: inactive; negative
- mutagenic call [3]: inactive; negative
- mutagenic call (Test System: MOUSE LYMPHOMA, Strain/Indicator: L5178Y (TK+/TK-), Metabolic Activation: NONE, Method: SUSPENSION/PLATE): active; positive. reevaluation of results: positive
- mutagenic call (Test System: MOUSE LYMPHOMA, Strain/Indicator: L5178Y (TK+/TK-), Metabolic Activation: RAT, LIVER, S-9, AROCLOR 1254, Method: SUSPENSION/PLATE): active; positive. reevaluation of results: positive

SMILES: C[C@H](CCC(=O)O)[C@H]1CC[C@H]2[C@@H]3CC[C@@H]4CC(=O)CC[C@]4(C)[C@H]3C[C@H](O)[C@]12C
- mutagenic call (Test System: AMES SALMONELLA TYPHIMURIUM, Strain/Indicator: TA98, Metabolic Activation: NONE, Method: FLUCTUATION TEST): inactive; negative
- mutagenic call [4]: inactive; negative
- mutagenic call (Test System: AMES SALMONELLA TYPHIMURIUM, Strain/Indicator: TA98, Metabolic Activation: RAT, LIVER, S-9, PCB, Method: PREINCUBATION): inactive; negative
- mutagenic call (Test System: AMES SALMONELLA TYPHIMURIUM, Strain/Indicator: TA100, Metabolic Activation: NONE, Method: FLUCTUATION TEST): inactive; negative

SMILES: CC(=O)Nc1cnc2ccccc2c1
- mutagenic call [4]: inactive; negative
- mutagenic call (Test System: AMES SALMONELLA TYPHIMURIUM, Strain/Indicator: TA98, Metabolic Activation: RAT, LIVER, S-9, KANECHLOR 500, Method: PREINCUBATION): inactive; negative
- mutagenic call [1]: inactive; negative
- mutagenic call (Test System: AMES SALMONELLA TYPHIMURIUM, Strain/Indicator: TA100, Metabolic Activation: RAT, LIVER, S-9, KANECHLOR 500, Method: PREINCUBATION): inactive; negative

Source: PubChem BioAssay AID1259407 (Chemical Carcinogenesis Research Information System (CCRIS), 2018)
